From PMC8923065, “Paeoniflorin reduce luxS/AI-2 system-controlled biofilm formation and virulence in Streptococcus suis” (Virulence, 2021)

Biological target: T1, LuxS (Streptococcus suis, UniProt B2CMA5)
T1 construct: recombinant from pET28-luxS in E. coli BL21(DE3), HisTrap purified
Experiment: Ellman assay of homocysteine, […] nm, Michaelis-Menten fit
Assay type: biochemical
Conditions: SRH as substrate, 6.25-25 ug/ml PF, pH 7.2, 37 °C; competitive; partial inhibition

T1 sequence (B2CMA5 entry or part of it): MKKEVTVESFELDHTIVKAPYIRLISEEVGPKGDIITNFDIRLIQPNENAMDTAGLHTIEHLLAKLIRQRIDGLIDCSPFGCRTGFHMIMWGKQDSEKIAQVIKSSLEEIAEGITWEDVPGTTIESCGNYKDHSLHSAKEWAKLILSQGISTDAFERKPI

C[C@@]12C[C@@]3(O)O[C@@H](O1)[C@]1(COC(=O)c4ccccc4)[C@H]3C[C@@]12O[C@@H]1O[C@H](CO)[C@@H](O)[C@H](O)[C@H]1O [PF, paeoniflorin]
Ellman assay of homocysteine, 412 nm, Michaelis-Menten fit: the Km value of LuxS gradually increases, although the maximum reaction rate does not change
